This note sets out measurements from EP4792811A1, “S1PR4 REGULATOR COMPOUND FOR MUSCLE DISEASE TREATMENT AND APPLICATION THEREOF” (Shengyuan Zetong (Shanghai) Pharmaceutical Co., Ltd, priority 2023, dated 2025).

The subject of series [1] is S1PR4-R82C/NDUFA10-R217W double-mutant mice. Description: In vivo efficacy in S1PR4-R82C/NDUFA10-R217W double-mutant muscular dystrophy mice. The note with it: 1 mg/kg intragastric once daily. On the procedure:
Experimental Animals: A total of 34 S1PR4-R82C/NDUFA10-R217W mice were divided into 6 groups as shown below.
Intragastric administration was initiated on Day 0, and body weight was measured daily during the experiment to adjust the drug dosage. Grip strength was measured at the beginning and end of the experiment to observe motor changes in mice. Changes in the limb grip strength, serum creatine kinase content, and muscle fibrosis/inflammation in mice were detected as indicators for evaluating drug efficacy.
(§1) The mouse was placed horizontally on the grip test board. The mouse's tail was held and pulled gently in the opposite direction without using excessive force. The tail was gradually pulled until the mouse released the grip force sensor. The maximum value recorded by the grip force sensor is the grip strength. The test was repeated for 3 times and the average value was taken.
(§2) After the completion of administration, blood was collected via the orbital sinus, allowed to stand for 30 minutes, centrifuged at 3000 rpm at 4°C for 15 minutes, and serum was extracted, stored frozen at -20°C, and detected in accordance with the kit instructions.
(§3) After the experiment, the tibialis anterior, extensor digitorum longus, and diaphragm of the mice were harvested, fixed, sectioned, and subjected to HE staining and Sirius Red staining to observe the degree of muscle fibrosis. The slice was subjected to immunofluorescence staining with F4/80 to observe the level of muscle inflammation.

In another series the target is T1, S1PR4 (Homo sapiens, UniProt O95977).
T1 construct: expressed in transfected cells; host or cells: 293T
T1 sequence (O95977 1-384): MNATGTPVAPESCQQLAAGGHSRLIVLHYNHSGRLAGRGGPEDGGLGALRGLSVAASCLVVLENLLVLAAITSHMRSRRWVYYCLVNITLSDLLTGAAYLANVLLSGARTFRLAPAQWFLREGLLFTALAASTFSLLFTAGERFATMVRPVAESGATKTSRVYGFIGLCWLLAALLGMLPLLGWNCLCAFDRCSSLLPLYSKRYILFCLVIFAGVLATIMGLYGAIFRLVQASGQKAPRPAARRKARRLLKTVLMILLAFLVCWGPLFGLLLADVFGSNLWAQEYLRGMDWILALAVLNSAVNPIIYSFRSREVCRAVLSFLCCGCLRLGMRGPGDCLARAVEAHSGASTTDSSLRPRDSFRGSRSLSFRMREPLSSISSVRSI
Description: S1PR4 internalization function test in S1PR4-293T cells. The note with it: 1 µM, 37 °C, 1.5 hours; detected immediately, or at 5 hours or 20 hours after treatment. The series is classed as cell-based. As to the method: Therefore, the recovery degree of S1PR4 after internalization caused by Compound 30 was evaluated, and the recovery effect following receptor internalization caused by Compound 30 was assessed in cells with high S1PR4 expression.

The next series has as its target T2, hS1P1 (Homo sapiens, UniProt P21453).
T2 construct: expressed in transfected cells; host or cells: CHO-K1
Put plainly: Tango β-arrestin recruitment assay, Tango-hS1P1-CHO. Type of series: cell-based. The note with it: final concentration 45 µM, 9 serial dilutions at 5-fold intervals; 20 h drug treatment; luciferase readout. The source says: (§4) The Tango assay detects ligand-dependent GPCR activity through the interaction between β-arrestin and GPCRs. […] The NTEV fragment and the tetracycline transactivator (tTA), an artificial transcription factor, are fused at the C-terminus of the GPCR, while the CTEV fragment is fused to human β-arrestin 2. To enhance the stability of the interaction between GPCR and β-arrestin, a short sequence from the C-terminus of the human arginine vasopressin receptor 2 (V2 tail) is inserted between the GPCR and NTEV. The V2 tail contains multiple GRK phosphorylation sites, which strengthen β-arrestin binding upon phosphorylation. The CTEV fragment carries the stabile point mutation S219P and is truncated at residue 221 to remove the autoinhibitory C-terminal tail. Meanwhile, β-arrestin 2 is truncated to lack the entire C-terminal tail (residues 383-410 deleted). This truncation confers robust stimulus-dependent receptor desensitization, thereby improving detection sensitivity compared with wild-type β-arrestin 2. The UAS reporter construct consists of upstream activating sequence (UAS) elements, a minimal CMV promoter, and a tTA-dependent luciferase reporter gene. Therefore, constructing Tango cells requires the co-transfection of the above three plasmids into host cells. Upon GPCR activation and β-arrestin recruitment, the TEV enzyme at the β-arrestin terminus cleaves tTA from the GPCR C-terminus. The released tTA initiates tTA-dependent luciferase transcription, and compound activity is ultimately determined by measuring luminescence intensity.
(§5) • 1) Tango cell line from was digested from the culture dish respectively. After cell counting, the cells were plated at a density of 10,000 cells per well with […] into a white opaque 96-well plate (add 60 µL D'Hanks to the surrounding wells), and incubated overnight (20 h) in a 5% CO2 incubator at 37°C. The cell density will reach approximately 90% the next day. • 2) After 20 h, 30 µL of serially diluted compound solution was added to each well. The control group was supplemented with 30 µL F12K complete medium. Each group had three replicate wells. • 3) Samples were collected after 20 h of drug treatment.
(§6) (All compounds were tested at a final concentration of 45 µM, with 9 serial dilutions at 5-fold intervals. 1 µM BAF-312 was used as the positive control for S1PR1, and 25 µM BAF-312 was used as the positive control for S1PR4.)
^a β-arrestin recruitment activity based on Tango-S1PR1-CHO-K1 and Tango-S1PR4-CHO-K1 cells, expressed as mean EC50 values ± SD. ^b FLIPR assays were performed using S1PR2-CHO and S1PR5-CHO cell lines, expressed as mean EC50 values ± SD. ^c β-arrestin recruitment activity based on PathHunter CHO-K1-S1PR3 cells, expressed as mean EC50 values ± SD. Data are the mean of at least two independent determinations, reported as mean ± SD (standard deviation).

In series [2] the test system is Duchenne muscular dystrophy model mice. Description: In vivo pharmacodynamic test in Duchenne muscular dystrophy model mice (Compound 30). To be noted: 1 mg/kg intragastric once daily. On the procedure: Experimental Animals: A total of 35 Duchenne muscular dystrophy model mice were divided into 6 groups as shown below.
Intragastric administration was initiated from Day 0. Body weight was measured daily during the experiment to adjust the drug dosage. Grip strength tests were performed every 2 days to observe changes in the mice's grip strength until the experiment concluded on Day 21. Changes in the limb grip strength, serum creatine kinase content, and muscle fibrosis/inflammation in the mice were detected as indicators for evaluating drug efficacy.
as §1, §2, §3

A further series has as its target T3, hS1P4-R-79C (Homo sapiens, UniProt O95977, R79C).
T3 construct: expressed in transfected cells; host or cells: CHO
T3 sequence (O95977 1-384 R79C): T1 sequence (O95977 1-384) with R79C
Description: Tango β-arrestin recruitment assay, Tango-hS1P4-R-79C-CHO. The series is classed as cell-based. The note with it: final concentration 45 µM, 9 serial dilutions at 5-fold intervals; 20 h drug treatment; luciferase readout.
From the text: as §4, §5, §6

Where a chain is given by its changes, count along the chain named.

T2 sequence (P21453 whole entry): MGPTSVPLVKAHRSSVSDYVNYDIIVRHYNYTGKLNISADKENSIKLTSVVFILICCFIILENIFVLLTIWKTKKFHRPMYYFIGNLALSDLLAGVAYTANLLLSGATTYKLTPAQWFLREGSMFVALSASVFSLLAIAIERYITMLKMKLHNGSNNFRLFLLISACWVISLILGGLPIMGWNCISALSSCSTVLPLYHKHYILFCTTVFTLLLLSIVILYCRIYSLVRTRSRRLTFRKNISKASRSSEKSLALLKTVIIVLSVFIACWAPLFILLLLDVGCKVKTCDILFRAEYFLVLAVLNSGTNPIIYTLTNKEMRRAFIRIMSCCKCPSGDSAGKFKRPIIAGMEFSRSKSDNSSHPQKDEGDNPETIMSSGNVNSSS

As for `CCc1cc(/C(C)=N/OCc2ccc(C3CCCCC3)c(C(F)(F)F)c2)ccc1CN1CC(C(=O)O)C1` [BAF312, reference compound], the “collagen deposition (collagen area ratio)” value is reported as “significantly reduced collagen deposition” in series [1] (after administration) and “no difference” in series [2]. The results for the “serum creatine kinase level” value in series [1] (after treatment) and in series [2] (after treatment) were “significantly reduced” and “no such effect”, respectively. Also, in series [1] (compared with the model group), the “body weight gain trend” value is reported as “no difference”. Besides, the “S1PR4 internalization (expression of S1PR4 receptor on the cell surface)” value at S1PR4 was “cannot induce S1PR4 internalization”. For the same molecule, the EC50 – broadly, the concentration at which the effect is half-maximal – at hS1P1 was found to be 1.04 nM; on hS1P4-R-79C it was 157 nM. In series [2], the “macrophage content (F4/80 immunofluorescence, muscle inflammation)” value is listed as “no improvement”. For the same molecule, the “number of centrally nucleated fibers (HE staining)” value in series [2] was “significantly reduced”. Besides, in series [2] (compared with the model group), the “body weight growth trend” value is listed as “no difference”.
